Where two headings read alike, the source gives them in different places. Some results are limits rather than exact numbers.

The text below walks through data of patent publication US6906193B2, “N-type calcium channel antagonists for the treatment of pain” (AstraZeneca AB, priority 2000, dated 2005).

In one experiment the target is N-type calcium channel (Homo sapiens, UniProt Q00975). Kind of experiment: N-channel FLIPR assay. The format is cell-based.
In experiment [1] the test system is formalin-induced nocifensive behaviours. Kind of experiment: Formalin test. The format is in vivo, rats. To be noted: Rattus norvegicus, read-out: IPT (Formalin). The method, then:
The Formalin test assesses the inhibitory effects of orally administered N-type calcium channel antagonists on formalin-induced nocifensive behaviours in rats. The formalin test is a well established pain test (Dubuisson and Dennis, 1977; Wheeler-Aceto et al., 1990; Coderre et al., 1993). This test consists of two distinct phases of formalin-induced behaviour. The first phase response, occurring between 0 to 5 minutes, is caused by acute nociception to the noxious chemical (formalin) injected into the paw. This is followed by a quiescent period of between 5 to 15 min post injection. A second phase response, occurring after 15 minutes and lasting up to 60 minutes, is caused by sensitisation of the central neurons in the dorsal horn. Central sensitisation augments the noxious afferent input and a stronger pain barrage is transmitted into the brain. Inhibition of the second phase response is indicative of a central mechanism of drug action.
The procedure for the formalin test is as follows: male rats are placed in a plexiglass chamber and observed for 30-45 min. to observe their baseline activity. Multiple groups of animals are pretreated with either vehicle or different doses of a test compound. Animals are dosed with the drug of interest either 40 min., if by the intraperitoneal route, or 90 min., if by the oral route, prior to injection of formalin into a hind paw (under the dorsal skin; 0.05 mL of sterile 5% formalin). The number of paw flinches and licks during first phase (0-5 min.) and second phase (20-35 min.) are scored and recorded. Flinch and lick responses are calculated as percentage of inhibition compared with the mean score of a saline control group. Drug potencies are expressed as the dose which causes 50% of the maximum inhibitory effect (“ID50”). Student t-tests are used for statistical analysis to determine the significance of drug effects. Compounds are considered active based on their ability to inhibit the flinch response.

The test system of a further experiment is L-type calcium channel. Briefly: L-channel FLIPR assay. Type of experiment: cell-based, human. To be noted: 5-point concentration-response curves; SK-N-SH cells.
Another experiment deals with pain. Particulars: in vivo; cited from earlier work.

Chain of N-type calcium channel (Q00975 whole entry): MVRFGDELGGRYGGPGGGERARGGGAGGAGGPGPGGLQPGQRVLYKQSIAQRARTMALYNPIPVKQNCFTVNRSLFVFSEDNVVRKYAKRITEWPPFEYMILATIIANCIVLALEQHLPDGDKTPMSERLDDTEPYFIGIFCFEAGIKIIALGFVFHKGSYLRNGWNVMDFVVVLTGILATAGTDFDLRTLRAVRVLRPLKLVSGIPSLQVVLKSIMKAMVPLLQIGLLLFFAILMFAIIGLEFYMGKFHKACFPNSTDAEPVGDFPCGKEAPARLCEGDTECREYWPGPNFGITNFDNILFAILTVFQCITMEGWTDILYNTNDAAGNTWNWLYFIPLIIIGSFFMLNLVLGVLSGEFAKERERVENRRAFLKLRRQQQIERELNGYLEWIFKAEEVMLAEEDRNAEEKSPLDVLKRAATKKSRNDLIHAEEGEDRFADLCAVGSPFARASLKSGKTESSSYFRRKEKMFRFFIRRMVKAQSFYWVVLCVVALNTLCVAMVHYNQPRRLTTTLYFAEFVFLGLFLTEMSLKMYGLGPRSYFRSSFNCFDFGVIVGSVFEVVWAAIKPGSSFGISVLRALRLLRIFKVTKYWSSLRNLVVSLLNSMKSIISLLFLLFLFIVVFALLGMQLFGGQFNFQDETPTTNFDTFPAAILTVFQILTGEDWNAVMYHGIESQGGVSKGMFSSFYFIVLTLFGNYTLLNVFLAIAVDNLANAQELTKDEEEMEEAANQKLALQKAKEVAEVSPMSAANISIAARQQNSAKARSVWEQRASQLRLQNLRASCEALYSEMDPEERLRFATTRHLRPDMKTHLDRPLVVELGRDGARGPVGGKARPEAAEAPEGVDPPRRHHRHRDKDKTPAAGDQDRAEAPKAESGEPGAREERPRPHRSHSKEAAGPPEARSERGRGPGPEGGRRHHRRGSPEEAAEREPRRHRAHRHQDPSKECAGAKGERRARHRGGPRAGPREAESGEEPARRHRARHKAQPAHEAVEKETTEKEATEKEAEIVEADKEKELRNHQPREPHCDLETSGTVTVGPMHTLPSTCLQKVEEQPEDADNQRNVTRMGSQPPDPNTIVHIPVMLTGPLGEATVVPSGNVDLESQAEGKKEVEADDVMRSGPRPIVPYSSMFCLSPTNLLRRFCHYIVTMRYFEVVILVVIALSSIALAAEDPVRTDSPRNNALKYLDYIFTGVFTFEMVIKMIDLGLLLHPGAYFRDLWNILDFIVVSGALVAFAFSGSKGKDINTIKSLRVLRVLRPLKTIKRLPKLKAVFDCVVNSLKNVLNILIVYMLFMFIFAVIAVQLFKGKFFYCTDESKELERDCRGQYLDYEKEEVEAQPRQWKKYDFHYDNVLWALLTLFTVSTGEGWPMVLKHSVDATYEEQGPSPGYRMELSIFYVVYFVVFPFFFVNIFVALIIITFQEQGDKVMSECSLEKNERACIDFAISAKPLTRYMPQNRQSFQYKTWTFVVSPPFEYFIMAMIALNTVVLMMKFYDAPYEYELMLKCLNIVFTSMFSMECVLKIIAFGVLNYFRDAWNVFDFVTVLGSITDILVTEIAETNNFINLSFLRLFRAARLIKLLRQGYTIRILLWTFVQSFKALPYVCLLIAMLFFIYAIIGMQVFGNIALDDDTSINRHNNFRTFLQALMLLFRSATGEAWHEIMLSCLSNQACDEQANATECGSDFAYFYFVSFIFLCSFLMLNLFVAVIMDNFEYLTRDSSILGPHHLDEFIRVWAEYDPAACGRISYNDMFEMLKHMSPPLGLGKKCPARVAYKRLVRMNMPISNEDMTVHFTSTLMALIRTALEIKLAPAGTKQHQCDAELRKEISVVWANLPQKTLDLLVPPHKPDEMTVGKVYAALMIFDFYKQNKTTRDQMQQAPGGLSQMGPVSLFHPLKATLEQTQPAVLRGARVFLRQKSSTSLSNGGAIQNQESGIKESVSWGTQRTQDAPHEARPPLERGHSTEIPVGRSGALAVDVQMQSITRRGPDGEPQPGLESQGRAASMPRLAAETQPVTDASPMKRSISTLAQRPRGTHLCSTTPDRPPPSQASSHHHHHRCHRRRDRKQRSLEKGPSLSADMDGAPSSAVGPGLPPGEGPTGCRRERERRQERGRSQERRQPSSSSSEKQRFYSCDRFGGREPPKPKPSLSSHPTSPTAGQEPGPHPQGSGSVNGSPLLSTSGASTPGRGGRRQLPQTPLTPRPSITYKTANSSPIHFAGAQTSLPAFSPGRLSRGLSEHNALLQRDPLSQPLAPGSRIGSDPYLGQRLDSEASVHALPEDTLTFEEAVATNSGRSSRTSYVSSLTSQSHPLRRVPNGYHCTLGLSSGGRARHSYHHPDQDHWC
Chain of N-type calcium channel (P54289 25-956 partner limits assumed): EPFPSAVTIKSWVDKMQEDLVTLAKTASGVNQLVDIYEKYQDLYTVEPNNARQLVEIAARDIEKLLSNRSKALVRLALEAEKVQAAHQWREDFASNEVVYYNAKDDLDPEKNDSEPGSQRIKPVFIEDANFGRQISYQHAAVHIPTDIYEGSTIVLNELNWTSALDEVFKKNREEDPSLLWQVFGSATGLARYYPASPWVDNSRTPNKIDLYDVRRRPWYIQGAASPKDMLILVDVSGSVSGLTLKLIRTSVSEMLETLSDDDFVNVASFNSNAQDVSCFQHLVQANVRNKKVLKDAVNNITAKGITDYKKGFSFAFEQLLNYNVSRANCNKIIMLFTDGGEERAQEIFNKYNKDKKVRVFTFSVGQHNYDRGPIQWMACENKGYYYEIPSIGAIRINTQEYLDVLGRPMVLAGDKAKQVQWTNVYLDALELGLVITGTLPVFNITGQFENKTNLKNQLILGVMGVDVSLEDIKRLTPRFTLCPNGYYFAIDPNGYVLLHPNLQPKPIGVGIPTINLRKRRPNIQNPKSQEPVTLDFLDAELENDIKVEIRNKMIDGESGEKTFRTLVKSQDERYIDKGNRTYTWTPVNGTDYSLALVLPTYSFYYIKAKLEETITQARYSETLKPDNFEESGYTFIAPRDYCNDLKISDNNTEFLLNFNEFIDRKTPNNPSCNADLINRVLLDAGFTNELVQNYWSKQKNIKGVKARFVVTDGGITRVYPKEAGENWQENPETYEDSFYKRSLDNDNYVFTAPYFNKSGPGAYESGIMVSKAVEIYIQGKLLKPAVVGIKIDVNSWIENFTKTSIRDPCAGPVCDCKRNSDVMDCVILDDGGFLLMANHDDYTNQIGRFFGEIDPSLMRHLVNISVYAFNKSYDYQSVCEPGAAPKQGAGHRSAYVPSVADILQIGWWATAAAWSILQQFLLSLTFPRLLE
Chain of N-type calcium channel (P54289 957-1103 partner limits assumed): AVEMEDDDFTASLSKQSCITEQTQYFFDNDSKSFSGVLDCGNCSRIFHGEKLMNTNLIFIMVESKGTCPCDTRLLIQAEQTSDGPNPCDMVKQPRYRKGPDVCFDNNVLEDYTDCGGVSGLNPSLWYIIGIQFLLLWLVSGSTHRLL
Chain of N-type calcium channel (Q02641 whole entry partner): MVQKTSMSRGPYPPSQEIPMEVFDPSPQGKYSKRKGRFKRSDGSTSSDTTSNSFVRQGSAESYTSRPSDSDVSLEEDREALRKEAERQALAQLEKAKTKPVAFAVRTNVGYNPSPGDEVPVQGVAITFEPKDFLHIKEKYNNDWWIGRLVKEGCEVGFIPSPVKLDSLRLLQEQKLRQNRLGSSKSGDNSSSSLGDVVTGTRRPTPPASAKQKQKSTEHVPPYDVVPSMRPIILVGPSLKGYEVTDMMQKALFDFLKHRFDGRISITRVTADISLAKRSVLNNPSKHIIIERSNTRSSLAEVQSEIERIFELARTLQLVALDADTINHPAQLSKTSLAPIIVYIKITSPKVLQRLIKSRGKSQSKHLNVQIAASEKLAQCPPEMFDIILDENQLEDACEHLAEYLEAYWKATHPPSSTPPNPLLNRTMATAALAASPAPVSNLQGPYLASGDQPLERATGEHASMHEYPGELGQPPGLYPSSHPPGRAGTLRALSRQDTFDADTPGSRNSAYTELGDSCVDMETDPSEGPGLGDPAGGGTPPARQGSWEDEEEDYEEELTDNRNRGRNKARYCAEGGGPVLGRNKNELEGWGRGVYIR
Method for L-type calcium channel: An immortalized cell line, SK-N-SH, derived from human neuroblastoma cells (ATCC product # HTB-11) was used for all experiments. Cells were grown in T75 flasks containing Eagle's minimum essential medium (MEM) w/Earle's salts, with 0.1 mM non-essential amino acids, 1.0 mM Na pyruvate and 10% fetal bovine serum (FBS; Cat. # SLM-034-B, Specialty Media). Cells were grown to 100% confluency (by visual microscopic estimation) before sub-culture. Cells were sub-cultured at a ratio of 1:3 by first rinsing with 3 mL PBS, replacing the PBS with PBS containing 0.25% trypsin until the cells detached from the surface. 1 mL of the resulting suspension was then added to a new flask containing 10 mL fresh media. Cells were then incubated (37° C., 5% CO2), and media was exchanged about 3 days after subculturing.
Cells used for experiments were at the 100% confluency growth stage. Each flask provided enough cells for three 96-well plates. […]
Maximum signal (L-channel+non-specific): 12 wells received 20 μL buffer addition only (no nitrendipine) in the first solution addition sequence to define the maximal K^+-evoked Ca^2+ increase mediated by L-channels+non-specific (non-L-channel mediated fluorescence increase). The coefficient of variation amongst these wells for the K^+-evoked peak increase in fluorescence units was typically less than 12%. […]

For `COc1ccc(-c2cc(C(=O)O)c3ccccc3n2)cc1` [Example 1, 2-(4-methoxyphenyl)-4-quinolinecarboxylic acid], the IC50 (as a rule, the concentration that inhibits the measured activity by half) at N-type calcium channel is above 10 µM.

For the compound `O=C(O)c1cc(-c2ccc(Cl)cc2)nc2ccccc12` [Example 2, 2-(4-chlorophenyl)-4-quinolinecarboxylic acid], the IC50 on N-type calcium channel is above 10 µM.

For the compound `Nc1ccc2nc(-c3ccccc3)cc(N)c2c1` [Example 3, 2-phenyl-4,6-quinolinediamine], the inhibition in vivo at 30 mg/kg in experiment [1] (ip, 30 mg/kg, i.p., rats) came out at 45%; in experiment [1] (po, 30 mg/kg, p.o., rats), 28%. Further, the IC50 at N-type calcium channel came out at 3.5 µM.

In the case of `COc1cccc2c(C(=O)O)cc(-c3ccccc3)nc12` [Example 4, 8-methoxy-2-phenyl-4-quinolinecarboxylic acid], the IC50 at N-type calcium channel was above 10 µM.

`COc1ccc(-c2cc(N)c3ccccc3n2)cc1` [Example 5, 2-(4-methoxyphenyl)-4-quinolinamine]: on N-type calcium channel, the IC50 was determined as 4.8 µM.

With `Nc1cc(-c2ccccc2)nc2ccccc12` [Example 6, 2-phenyl-4-quinolinamine], the inhibition in vivo at 30 mg/kg in experiment [1] (ip, 30 mg/kg, i.p., rats) was 88%. Besides, the IC50 on N-type calcium channel stood at 4.4 µM.

Take `Cc1ccc(-c2cc(C(=O)O)c3ccccc3n2)cc1` [Example 7, 2-(4-methylphenyl)-4-quinolinecarboxylic acid]: on N-type calcium channel, the IC50 was above 10 µM.

In the case of `O=C(O)c1cc(-c2ccc(F)cc2)nc2ccccc12` [Example 8, 2-(4-fluorophenyl)-4-quinolinecarboxylic acid], the 50% inhibitory concentration (IC50) at N-type calcium channel was above 10 µM.

On to `Nc1cc(-c2cccc(F)c2)nc2ccccc12` [Example 9, 2-(3-fluorophenyl)-4-quinolinamine], for which the inhibition in vivo at 30 mg/kg in experiment [1] (ip, 30 mg/kg, i.p., rats) stood at 90%; in experiment [1] (po, 30 mg/kg, p.o., rats), 41%. Moreover, the IC50 at N-type calcium channel was 2.1 µM.

On to `CNc1cc(-c2cccc(F)c2)nc2ccccc12` [Example 10, 2-(3-fluorophenyl)-N-methyl-4-quinolinamine], for which the inhibition in vivo at 30 mg/kg came out at 77% in experiment [1] (ip, 30 mg/kg, i.p., rats) and 46% in experiment [1] (po, 30 mg/kg, p.o., rats). In addition, at N-type calcium channel, the IC50 was found to be 1.6 µM.

Take `CN(C)c1cc(-c2cccc(F)c2)nc2ccccc12` [Example 11, 2-(3-fluorophenyl)-N,N-dimethyl-4-quinolinamine]: the inhibition in vivo at 30 mg/kg in experiment [1] (ip, 30 mg/kg, i.p., rats) stood at 64%. Further, at N-type calcium channel, the half-inhibitory concentration (IC50) came out at 3 µM.

As for `CC(=O)Nc1cc(/C=C/c2ccccc2)nc2ccccc12` [Example 12, N-{2-[(E)-2-phenylethenyl]-4-quinolinyl}acetamide], at N-type calcium channel, the IC50 turned out to be 5 µM.

For `Nc1cc(/C=C/c2ccccc2)nc2ccccc12` [Example 13, 2-[(E)-2-phenylethenyl]-4-quinolinamine], the IC50 on N-type calcium channel amounted to 1.4 µM.

As for `Nc1cc(-c2cccs2)nc2ccccc12` [Example 14, 2-(2-thienyl)-4-quinolinamine], in experiment [1] (ip, 30 mg/kg, i.p., rats), the inhibition in vivo at 30 mg/kg stood at 25%. On N-type calcium channel, the IC50 amounted to 5.4 µM.

For `Cc1c(-c2ccccc2)nc2ccccc2c1C(=O)O` [Example 15, 3-methyl-2-phenyl-4-quinolinecarboxylic acid], on N-type calcium channel, the IC50 is above 10 µM.

Regarding `Cc1c(-c2ccccc2)nc2ccccc2c1N` [Example 16, 3-methyl-2-phenyl-4-quinolinamine], the figures for the inhibition in vivo at 30 mg/kg in experiment [1] (ip) and in experiment [1] (po) were 91% and 11%, respectively. In addition, the IC50 on N-type calcium channel turned out to be 3.6 µM.

On to `CC(=O)Nc1cc(/C=C/c2cccc(F)c2)nc2ccccc12` [Example 17, N-{2-[(E)-2-(3-fluorophenyl)ethenyl]-4-quinolinyl}acetamide], for which the IC50 at N-type calcium channel amounted to 6.4 µM.

For the compound `Nc1cc(/C=C/c2cccc(F)c2)nc2ccccc12` [Example 18, 2-[(E)-2-(3-fluorophenyl)ethenyl]-4-quinolinamine], the inhibition in vivo at 30 mg/kg in experiment [1] (ip, 30 mg/kg, i.p., rats) was determined as 19%. The IC50 on N-type calcium channel was determined as 4.3 µM.

Take `Cc1cc(C)c2c(N)cc(-c3ccccc3)nc2c1` [Example 19, 5,7-dimethyl-2-phenyl-4-quinolinamine]: the concentration for half-maximal inhibition (IC50) at N-type calcium channel is 1.5 µM.

For the compound `Cc1cccc2c(N)cc(-c3ccccc3)nc12` [Example 20, 8-methyl-2-phenyl-4-quinolinamine], on N-type calcium channel, the half-inhibitory concentration (IC50) is 3.1 µM.

On to `COc1ccc2nc(-c3ccccc3)cc(C(=O)O)c2c1` [Example 21, 6-methoxy-2-phenyl-4-quinolinecarboxylic acid], for which the IC50 at N-type calcium channel is above 10 µM.

With `COc1ccc2nc(-c3ccccc3)cc(N)c2c1` [Example 22, 6-methoxy-2-phenyl-4-quinolinamine], the inhibition in vivo at 30 mg/kg in experiment [1] (ip, 30 mg/kg, i.p., rats) was 16%. On N-type calcium channel, the half-maximal inhibitory concentration (IC50) is around 3 µM.

Take `CCc1c(-c2ccccc2)nc2ccccc2c1C(=O)O` [Example 23, 3-ethyl-2-phenyl-4-quinolinecarboxylic acid]: the IC50 at N-type calcium channel was above 10 µM.

Turning to `Nc1ccc2nc(/C=C/c3ccccc3)cc(N)c2c1` [Example 24, 2-[(E)-2-phenylethenyl]-4,6-quinolinediamine], the IC50 at N-type calcium channel was determined as 5.4 µM.

Turning to `Nc1ccc2nc(/C=C/c3cccc(F)c3)cc(N)c2c1` [Example 25, 2-[(E)-2-(3-fluorophenyl)ethenyl]-4,6-quinolinediamine], the IC50 on N-type calcium channel amounted to 3.8 µM.

For `COc1cccc2c(N)cc(-c3ccccc3)nc12` [Example 26, 8-methoxy-2-phenyl-4-quinolinamine], the half-maximal inhibitory concentration (IC50) on N-type calcium channel stood at 5 µM.

Take `Nc1c2c(nc3ccccc13)-c1ccccc1CC2` [Example 27, 5,6-dihydrobenzo[c]acridin-7-amine]: in experiment [1] (ip, 30 mg/kg, i.p., rats), the inhibition in vivo at 30 mg/kg was 50%. Besides, the IC50 at N-type calcium channel was 1.1 µM.

`O=C(O)c1cc(-c2ccccc2F)nc2ccccc12` [Example 28, 2-(2-fluorophenyl)-4-quinolinecarboxylic acid]: the IC50 at N-type calcium channel was above 10 µM.

For `CCc1c(-c2ccccc2)nc2ccccc2c1N` [Example 29, 3-ethyl-2-phenyl-4-quinolinamine], the IC50 at N-type calcium channel came to 1.2 µM.

For `Nc1cc(-c2ccc(F)cc2)nc2ccccc12` [Example 30, 2-(4-fluorophenyl)-4-quinolinamine], the IC50 on N-type calcium channel was determined as 3.4 µM.

On to `Nc1cc(-c2ccccc2F)nc2ccccc12` [Example 31, 2-(2-fluorophenyl)-4-quinolinamine], for which the concentration for half-maximal inhibition (IC50) on N-type calcium channel came out at 8 µM.

`Cc1ccc(-c2cc(N)c3ccccc3n2)cc1` [Example 32, 2-(4-methylphenyl)-4-quinolinamine]: the IC50 at N-type calcium channel worked out at 3.1 µM.

`Cc1cccc(-c2cc(C(=O)O)c3ccccc3n2)c1` [Example 33, 2-(3-methylphenyl)-4-quinolinecarboxylic acid]: the IC50 on N-type calcium channel is above 10 µM.

As to `Nc1c2c(nc3ccccc13)-c1ccccc1CCC2` [Example 34, 6,7-dihydro-5H-benzo[6,7]cyclohepta[1,2-b]quinolin-8-amine], the IC50 at N-type calcium channel was 0.9 µM.

As to `CC(C)(C)c1cc(N)c2ccccc2n1` [Example 35, 2-tert-butyl-4-quinolinamine], at N-type calcium channel, the IC50 was above 10 µM.

As to `Nc1cc(-c2ccc(Cl)cc2)nc2ccccc12` [Example 36, 2-(4-chlorophenyl)-4-quinolinamine], at N-type calcium channel, the IC50 worked out at 5.5 µM.

For the compound `Cc1cccc(-c2cc(N)c3ccccc3n2)c1` [Example 37, 2-(3-methylphenyl)-4-quinolinamine], the inhibition in vivo at 30 mg/kg in experiment [1] (ip, 30 mg/kg, i.p., rats) amounted to 47%; in experiment [1] (po, 30 mg/kg, p.o., rats), 13%. Also, at N-type calcium channel, the IC50 stood at 1.2 µM.

Turning to `CCOC(=O)C1=C(C)NC(C)=C(C(=O)OC)C1c1cccc([N+](=O)[O-])c1` (stereo not shown) [nitrendipine], in the experiment with L-type calcium channel, the IC50 stood at 30 nM.

Turning to conotoxin MVIIA, the “success rate for the treatment of pain” value with pain is around 85%.
